{
  "source": "patent US20090280166A1",
  "about": "“FERRITIN AS A THERAPEUTIC TARGET IN ABNORMAL CELLS” (The Penn State Research Foundation, priority 2005, published 2009)",
  "key": {"H-ferritin": {"system": "H-ferritin", "experiment": "Ferritin in nuclear and cytoplasmic fractions after DFO, alloxan and FAC treatments (Western blot)", "type": "cell-based, human", "conditions": "SW1088 cells", "from_the_text": "FIGS. 9A-9C show nuclear import of ferritin is inhibited by alloxan, whereas cytoplasmic levels of ferritin are not affected. Under resting conditions, SW1088 cells contain ferritin in both nuclear and cytoplasmic compartments. […] The reappearance of ferritin in cytoplasmic and nuclear compartments after DFO treatment (alone) or treatment with DFO+alloxan is affected by the presence of alloxan (alx) and/or FAC in the culture medium. FIG. 9A is a schematic illustration of the experimental procedure, showing the time course of changes in culture conditions. FIG. 9B is a scan of Western blots of nuclear (N) and cytoplasmic (C) extracts of SW1088 cells, resolved by SDS/PAGE. Samples of the nuclear extract contained 20 μg of total protein, whereas samples of the cytoplasmic extract contained […] of total protein. Ferritin was detected with HS-59 mouse monoclonal antibody and horseradish peroxidase-conjugated goat anti-mouse IgG. Lane a, extracts from cells cultured in medium containing 100 μM DFO; lane b, extracts of cells cultured in normal medium; lane c, extracts of cells cultured in 100 μM FAC; lane d, extracts of cells cultured in 100 μM DFO+1 mM alloxan; lane e, extracts of cells cultured in normal medium supplemented with 1 mM alloxan; lane f, extracts of cells cultured in medium supplemented with 100 μM FAC+1 mM alloxan. FIG. 9C is a graph showing a summary of ferritin contents. The relative amounts of ferritin in the nuclear (black bars) and cytoplasmic (striped bars) fractions were measured after an initial treatment with DFO alone or DFO+[…] and a subsequent culture in the presence of DFO alone, normal medium, medium supplemented with FAC, medium supplemented with DFO+alloxan, normal medium+alloxan or normal medium+FAC and alloxan. The relative amounts of ferritin are normalized to the amount of ferritin in the corresponding fractions before the initial DFO treatment.\nDFO and alloxan treatments: The iron chelator DFO was used to examine the effect of iron chelation on ferritin localization in the nuclei of astrocytoma cells. Cells were cultured in the presence of 100 μM DFO for 72 h. Alloxan, an inhibitor of O-glycosylation, was used in astrocytoma cell cultures at final concentrations of 0.1 and 1.0 mM. Six cultures were established in parallel and allowed to reach 80% confluence. The first three were treated with 100 μM DFO for 72 h, then rinsed in Hanks balanced salt solution to remove the free DFO and returned to standard medium alone or to a medium containing 0.1 mM FAC (ferric ammonium citrate) or 0.1 mM DFO. After these treatments, culturing was continued for 24 h. Another set of three cultures were treated with 100 μM DFO+1 mM alloxan for 72 h. The cells were rinsed in Hanks balanced salt solution to remove free reagents and returned to standard medium containing 1 mM alloxan or a medium containing 0.1 mM FAC+[…] or a medium containing 100 μM DFO+1 mM alloxan. After these treatments, the culturing was continued for 24 h. At the end of the culture period, cells were harvested and nuclear and cytosolic fractions were prepared as described below.\nNuclear and cytosolic fractions: Plated astrocytoma cells were rinsed in Hanks balanced salts, trypsinized and the cells were collected by centrifugation (800 g for 10 min). The pelleted cells were rinsed twice in ice-cold PBS buffer [0.01 M sodium phosphate (pH 7.4 at 25° C.), 138 mM NaCl and 2.7 mM KCl] and collected by centrifugation. The cell pellets were resuspended in 20 vol. of 10 mM Hepes (pH 7.9 at 25° C.), 1.5 mM MgCl2, 10 mM NaCl and 0.5 mM DTT (dithiothreitol) containing the following protease inhibitors: AEBSF (1 mM), aprotinin (0.8 μM), leupeptin (20 μM), bestatin (40 μM), pepstatin (15 μM) and E-64 (14 μM). Cell suspensions were incubated in ice for 30 min and collected by centrifugation. […]"}, "[1]": {"experiment": "Cell viability assay (MTT) of alloxan-treated cells", "type": "cell-based, human", "conditions": "human, SW1088 astrocytoma cells, 1 mM alloxan, read-out: cells remaining viable (MTT)", "procedure": "(§1) FIG. 10 is a graph showing alloxan inhibits protein O-glycosylation in SW1088 human astrocytoma cells. Cells were grown in triplicate independent cultures in the presence of 0, 100, 500 μM and 1 mM concentrations of alloxan. Aliquots of whole cell lysates from each culture were applied to a nitrocellulose membrane using a vacuum slot blot device. The membrane was blocked in a 5% solution of non-fat dry milk at 21±1° C. for 1 h and incubated overnight with mouse monoclonal anti-O-GlcNAc antibody. Immunocomplexes were detected and quantified. As an internal control for this assay, membrane loadings of 1 (♦), 5 (▪) and 10 (▴) μg of total protein were tested and they gave similar responses to changes in the concentration of alloxan in the original cultures.\n(§2) Cell viability assay: Cell viability measurement was performed using the reagent 3-(4,5-dimethylthiazol-2-yl)-2,5-diphenyl-2H-tetrazolium bromide (MTT), obtained from Roche Applied Science (Indianapolis, Ind., U.S.A.). The assay was performed according to the manufacturer's instructions.\n(§3) The effect of alloxan on ferritin redistribution is probably due to its influence on protein glycosylation or due to some other currently unknown effect. […] The cells were then harvested and total soluble proteins were analyzed by slot blot for O-glycosylation."}, "[2]": {"system": "SW1088 human astrocytoma cells", "experiment": "Cell viability assay (MTT) of alloxan-treated cells", "type": "cell-based", "conditions": "alloxan up to 1.0 mM, 96 h", "procedure": "as §1, §2, §3"}, "[3]": {"target": "recombinant human H-ferritin (rH-ferritin) (Homo sapiens, UniProt P02794)", "sequence (P02794 whole entry)": "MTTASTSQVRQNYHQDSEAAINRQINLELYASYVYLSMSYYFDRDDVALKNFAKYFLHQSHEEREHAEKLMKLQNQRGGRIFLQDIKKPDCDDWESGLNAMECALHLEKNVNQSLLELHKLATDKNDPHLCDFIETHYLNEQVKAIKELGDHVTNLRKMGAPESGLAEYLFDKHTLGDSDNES", "experiment": "Supercoil relaxation assay for iron release from ferritin", "type": "biochemical", "conditions": "rH-ferritin with or without 1 mM alloxan", "procedure": "Supercoil-relaxation assays were performed with pUC19 plasmid DNA (0.5 μg/assay). FIG. 11A is a scan showing electrophoretic profiles of pUC19 DNA incubated in the presence of recombinant H-ferritin (lanes a-e), recombinant H-ferritin+1 mM alloxan (lanes f-j) and 1 mM alloxan alone (lanes k-o). Reaction times were as indicated. Lane p, a sample of the superhelical pUC19 DNA that was not treated with ferritin. Band assignments: R, relaxed circle form; SC, superhelical topoisomers. FIG. 11B is a graph showing the mole fraction of superhelical DNA as a function of the reaction time for samples containing rH-ferritin (♦), rH-ferritin+1 mM alloxan (▪) and 1 mM alloxan alone (▴). Error bars represent S.D. values.\nSupercoil relaxation assay: DNA backbone breakage was detected using a superhelical DNA relaxation assay (Tachon, P. (1989) Free Radical Res. Commun. 7, 1-10; Crowe, A. and Morgan, E. H. (1992) Brain Res. 592, 8-16). The reaction mixtures (30 μl) contained covalently closed circular pUC19 DNA (0.5 μg; Sigma) dissolved in 10 mM Hepes (pH 7.5), 50 mM NaCl, 2.5 mM MgCl2 and 2.5 mM DTT. […] The mole fractions of superhelical and relaxed forms were measured by densitometry of photographic negatives of the gels after staining with 0.5 μg/ml ethidium bromide. […]"}, "[4]": {"system": "protein O-glycosylation in SW1088 human astrocytoma cells", "experiment": "Detection of O-glycosylated proteins by slot blot with anti-O-GlcNAc antibody", "type": "cell-based", "conditions": "SW1088 cells, 0, 0.1, 0.5 and 1.0 mM alloxan for 96 h", "procedure": "as §1, with “As an internal control for this assay, membrane loadings of 1 (♦), 5 (▪) and 10 (▴) μg of total protein were tested and they gave similar responses to changes in the concentration of alloxan in the original cultures.” left out\nDetection of glycosylated proteins: SW1088 cultures were treated with different concentrations of alloxan for 96 h. […] Protein concentrations were measured and aliquots containing 1, 5 and 10 μg of total cell proteins were applied in triplicate to a 0.2 μm nitrocellulose membrane (Amersham Biosciences). […] Immunocomplexes were detected using peroxidase-conjugated goat anti-mouse IgG (Sigma) and visualized with the ECL+kit (Amersham Biosciences). […]\nas §3"}, "primary rat astrocytes": {"system": "primary rat astrocytes", "experiment": "Longevity of transfected astrocytes (MTT)", "type": "cell-based", "procedure": "FIG. 15 is a graph showing the results of the longevity of transfected astrocytes versus control. Cells were transfected and then plated at equal density.\nCells were transfected and then plated at equal density. The longevity experiments were performed in two ways. First, cell viability was monitored in cultures in which the media was changed every seven days. In the second experiment, the media was not changed for 30 days to test nutrient deprivation. An MTT assay was performed on randomly selected cell cultures from 24 well plates every two weeks to monitor cell viability. […] The non-transfected astrocytes, however, die at an increased rate compared to the ferritin transfected cells. We have continued the study out to five months on the transfected cells, but none of the non-transfected cells are alive.\nThirdly, the non-NLS ferritin translocated to the nucleus over time."}, "rat primary astrocytes": {"system": "rat primary astrocytes", "experiment": "Cytotoxicity of iron compound TMHF on transfected astrocytes (MTT)", "type": "cell-based", "conditions": "three concentrations of TMHF", "procedure": "FIG. 16 is a graph showing the cytotoxicity profile of stress factors on rat primarily astrocytes transfected with NLS and non-NLS H ferritin construct. Cytotoxicity was determined by MTT assay after treatment with three different concentrations of soluble iron compound 3,5,5-trimethyl (hexanoyl) ferrocene (TMHF). A total of 12 trials were run in triplicate for each sample and the grand mean and SE are reported.\nCytotoxicity was determined by MTT assay after treatment with three different concentrations of soluble iron compound 3,5,5-trimethyl (hexanoyl) ferrocene (TMHF). A total of 12 trials were run in triplicate for each sample and the grand mean and SE are reported. […] Other common stressors (hydrogen peroxide, cytokines, hypoxia) will also be examined."}, "[5]": {"conditions": "100 μM DFO+1 mM alloxan in the initial growth period, then fresh medium"}},
  "note": "“Also recorded” adds a separate entry of the source.",
  "data": [
    {"compound": "CC(=O)N(O)CCCCCNC(=O)CCC(=O)N(O)CCCCCNC(=O)CCC(=O)N(O)CCCCCN", "note": "[DFO, desferoxamine]", "values": [
      {"measurement": "ferritin content in nuclear and cytoplasmic compartments", "setting": "H-ferritin; 100 μM DFO", "result": "significantly decreases ferritin content in both compartments"}
    ]},
    {"compound": "O=C1NC(=O)C(=O)C(=O)N1", "note": "[alloxan]", "values": [
      {"measurement": "viability at 96 h, 1 mM", "setting": "[1]", "result": "87 ± 3", "unit": "%"},
      {"measurement": "effect on cell viability", "setting": "[2]", "result": "did not affect cell viability; also recorded: without significant effects on cell viability"},
      {"measurement": "iron release from ferritin (DNA nicking of pUC19)", "setting": "[3]", "result": "does not effect the rate or amount of iron release from ferritin; also recorded: does not cause a significant release of iron from ferritin"},
      {"measurement": "total amount of O-glycosylated protein", "setting": "[4]", "result": "decreases the total amount of O-glycosylated protein in a dose-dependent manner"},
      {"measurement": "cytoplasmic ferritin after DFO treatment (reappearance)", "setting": "H-ferritin; [5]", "result": "remained essentially unchanged"},
      {"measurement": "reappearance of nuclear ferritin after DFO treatment", "setting": "H-ferritin; [5]", "result": "inhibited"},
      {"measurement": "cytoplasmic ferritin after DFO treatment (reappearance)", "setting": "H-ferritin; 100 μM DFO+1 mM alloxan in the initial growth period, then fresh medium, listed as Alloxan", "result": "no effect"},
      {"measurement": "FAC-induced increase in nuclear ferritin", "setting": "H-ferritin; 100 μM FAC+1 mM alloxan", "result": "blocked"},
      {"measurement": "FAC-induced increase of cytoplasmic ferritin", "setting": "H-ferritin; 100 μM FAC+1 mM alloxan", "result": "not the increase of cytoplasmic ferritin"},
      {"measurement": "disappearance of ferritin from the nuclear fraction when DFO is added", "setting": "H-ferritin; DFO + alloxan", "result": "does not prevent"}
    ]},
    {"compound": "ferric ammonium citrate [FAC]", "values": [
      {"measurement": "increase in nuclear and cytoplasmic ferritin contents relative to levels found in untreated cells", "setting": "H-ferritin; 100 μM FAC added to standard medium after DFO", "result": "approx. 200%"}
    ]},
    {"compound": "ferritin", "values": [
      {"measurement": "survival of transfected cells, media changed", "setting": "primary rat astrocytes; media changed every seven days", "result": "three months"},
      {"measurement": "survival of transfected cells, media not changed", "setting": "primary rat astrocytes; nutrient deprivation, media not changed", "result": 30, "unit": "days"},
      {"measurement": "ability of astrocytes to withstand iron induced stress", "setting": "rat primary astrocytes", "result": "increases the ability of primary astrocytes to withstand iron induced stress"}
    ]}
  ]
}
